Results taken from patent publication US10550142B2, “Quercetin-based compound” (AMOREPACIFIC CORPORATION, priority 2016, dated 2020).

Target: T1, β-amyloid (Aβ1-42) (Homo sapiens, UniProt P05067)
T1 construct: β-amyloid (Aβ1-42, AnaSpec Inc, USA) was obtained; purchased AnaSpec Inc, USA
Test: Beta-amyloid aggregation inhibition, fluorescence analysis (Thioflavin T assay)
Type: biochemical
Details: compound 10 μM; for Increased RFU (amount of aggregated β-amyloid): Aβ1-42 0.1 mg/ml, 37° C., 150 minutes; for Increased RFU (% of Pos.Cont.): aggregated β-amyloid compared to the positive control (no compound) = 100; for decreased aggregation compared with the positive control: positive control taken as 100%
Experimental: The beta-amyloid aggregation inhibitory effect of quercetin 3-O-[3-O″-(E)-p-coumaroyl][β-D-glucopyranosyl-(1→3)-O-α-L-rhamnopyranosyl-(1→6)-O-β-D-glucopyranoside] and quercetin 3-O-[3-O″-(E)-p-coumaroyl][α-L-rhamnopyranosyl-(1→6)-O-β-D-glucopyranoside] was determined by fluorescence analysis (Thioflavin T assay). Specifically, β-amyloid (Aβ1-42, AnaSpec Inc, USA) was obtained and used at a concentration of 0.1 mg/ml. It was stored at −80° C. prior to use. Each of morin (20 μM), phenol red (20 μM), quercetin 3-O-[3-O″-(E)-p-coumaroyl][β-D-glucopyranosyl-(1→3)-O-α-L-rhamnopyranosyl-(1→6)-O-β-D-glucopyranoside] (1 mg/ml), and quercetin 3-O-[3-O″-(E)-p-coumaroyl][α-L-rhamnopyranosyl-(1→6)-O-β-D-glucopyranoside] (1 mg/ml) was diluted to these concentrations in DMSO. In order to determine the degree of inhibition of Aβ1-42 aggregation, each compound at the above concentration was diluted to 10 μM in 50 μL of 0.01 M sodium phosphate buffer solution. Then, 40 μL of 0.1 mg/ml Aβ1-42 was added thereto, followed by addition of 10 μL of 2 mM Thioflavin T. The fluorescence was then measured with a fluorescence spectrometer (RF-5300PC, SHIMADZU CORPORATION, Japan) at 37° C. and intervals of 5 minutes for 150 minutes. In the table above, “RFU” denotes relative fluorescence unit, and “increased RFU” indicates the amount of aggregated β-amyloid. “Increased RFU (% of Pos.Cont.)” indicates the percentage of aggregated β-amyloid compared to the positive control. “Novel substance 31” indicates quercetin 3-O-[3-O″-(E)-p-coumaroyl][β-D-glucopyranosyl-(1→3)-O-α-L-rhamnopyranosyl-(1→6)-O-β-D-glucopyranoside], and “novel substance 32” indicates quercetin 3-O-[3-O″-(E)-p-coumaroyl][α-L-rhamnopyranosyl-(1→6)-O-β-D-glucopyranoside].

T1 sequence (P05067 672-713 limits assumed): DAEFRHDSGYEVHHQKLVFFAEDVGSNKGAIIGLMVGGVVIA

Row | Increased RFU (amount of aggregated β-amyloid) [RFU] | Increased RFU (% of Pos.Cont.) [%] | decreased aggregation compared with the positive control [%] | Compound
1 | 12955 | 88.8 | 11.2 | CC1OC(OCC2OC(Oc3c(-c4ccc(O)c(O)c4)oc4cc(O)cc(O)c4c3=O)C(O)C(OC(=O)/C=C/c3ccc(O)cc3)C2O)C(O)C(OC2OC(CO)C(O)C(O)C2O)C1O [Novel substance 31, quercetin 3-O-[3-O″-(E)-p-coumaroyl][β-D-glucopyranosyl-(1→3)-O-α-L-rhamnopyranosyl-(1→6)-O-β-D-glucopyranoside]]
2 | 12148 | 83.2 | 16.8 | CC1OC(OCC2OC(Oc3c(-c4ccc(O)c(O)c4)oc4cc(O)cc(O)c4c3=O)C(O)C(OC(=O)/C=C/c3ccc(O)cc3)C2O)C(O)C(O)C1O [Novel substance 32, quercetin 3-O-[3-O″-(E)-p-coumaroyl][α-L-rhamnopyranosyl-(1→6)-O-β-D-glucopyranoside]]
